Patent US20250368614A1, “COMPOUNDS AND METHODS FOR YAP/TEAD MODULATION AND INDICATIONS THEREFOR” (OPNA BIO SA, priority 2023, published 2025)

Tested on: TEAD-dependent transcription (12XGTIIC TEAD response element luciferase reporter) in MSTO-211H cells
Assay: TEAD-dependent transcription cell-based luciferase reporter assay in MSTO-211H+12XGTIIC cells
Conditions: Homo sapiens; MSTO-211H+12XGTIIC reporter cells, 24 hours compound incubation, luminescence normalized to cell viability signal, geometric mean; read-out: MSTO-211H GMean IC50 (uM) Cell Assay Reporter Cell Variant: TEAD
Text: Determine Inhibitor Activity Against TEAD-Dependent Transcription in a Cell-Based Reporter Assay
The human mesothelioma cell line MSTO-211H was stably transfected with a pGL4.21 plasmid containing a synthetic promoter with 12 copies of the GTIIC TEAD response element that drives the expression of a luciferase reporter gene^1 using Lipofectamine transfection reagent (Thermo Fisher). Transfected cells were selected using puromycin and single cell clones expressing this construct (referred to as MSTO-211H+12XGTIIC) were generated by limiting dilution. MSTO-211H cells was characterized by genetic alterations in key components of the Hippo pathway^2, resulting in up-regulation of YAP/TEAD-mediated transcription. […] To evaluate TEAD inhibitors, the MSTO-211H+12XGTIIC cell line was seeded in a 96-well plate in 50 μL of culture media at 1×10^4 cells per well and incubated at 37° C. overnight. Serial dilutions of compounds (in total volume of 50 μL of culture media) were added to the cells and incubated at 37° C. for 24 hours. Each plate included cells treated with DMSO as high controls and cells treated with 20 μM of the reference compound K-975 (a known TEAD inhibitor^3) as low controls. Cell viability was assayed by the addition of 25 μL of CellTiter-Fluor reagent (Promega) followed by a 30-minute incubation at 37° C. and quantification of the fluorescence signal (Ex400/Em505). Subsequently, luciferase expression was assayed by the addition of 25 μL of ONE-Glo reagent (Promega) followed by a 10-minute incubation at room temperature and quantification of the luminescence signal. The luminescence signal was normalized to the fluorescence signal to correct for any loss in cell viability over the 24-hour compound incubation period. The percentage of inhibition of normalized luminescence signal, indicative of compound-mediated inhibition of TEAD-dependent transcription, at individual compound concentrations relative to high and low controls was calculated. The data were analyzed by using nonlinear regression to generate IC50 values for individual compounds.

Row | SMILES | IC50 [µM]
1 | C=CC(=O)Nc1cccc(C(=O)N2CCc3c(cccc3N(C)c3ccc(C(F)(F)F)cc3)C2)n1 [Compound O-0018, N-(6-(5-(methyl(4-(trifluoromethyl)phenyl)amino)-1,2,3,4-tetrahydroisoquinoline-2-carbonyl)pyridin-2-yl)acrylamide] | 0.001 to 10
2 | O=C(Cc1cnco1)N1CCc2c(cccc2Nc2ccc(C(F)(F)F)cc2)C1 [Compound O-0004, 2-(oxazol-5-yl)-1-(5-((4-(trifluoromethyl)phenyl)amino)-3,4-dihydroisoquinolin-2(1H)-yl)ethan-1-one] | 0.001 to 10
3 | C=CC(=O)Nc1cc(C(=O)N2CCc3c(cccc3Nc3ccc(C(F)(F)F)cc3)C2)ccn1 [Compound O-0038, N-(4-(5-((4-(trifluoromethyl)phenyl)amino)-1,2,3,4-tetrahydroisoquinoline-2-carbonyl)pyridin-2-yl)acrylamide] | 0.001 to 10
4 | Cn1cncc1CC(=O)N1CCc2c(cccc2Nc2ccc(C(F)(F)F)cc2)C1 [Compound O-0002, 2-(1-methyl-1H-imidazol-5-yl)-1-(5-((4-(trifluoromethyl)phenyl)amino)-3,4-dihydroisoquinolin-2(1H)-yl)ethan-1-one] | 0.001 to 10
5 | Cc1nc(CC(=O)N2CCc3c(cccc3Nc3ccc(C(F)(F)F)cc3)C2)co1 [Compound O-0005, 2-(2-methyloxazol-4-yl)-1-(5-((4-(trifluoromethyl)phenyl)amino)-3,4-dihydroisoquinolin-2(1H)-yl)ethan-1-one] | 0.001 to 10
6 | O=C(NCCC(=O)N1CCc2c(cccc2Nc2ccc(C(F)(F)F)c(F)c2)C1)NC1CC1 [Compound O-0188, 1-cyclopropyl-3-(3-(5-((3-fluoro-4-(trifluoromethyl)phenyl)amino)-3,4-dihydroisoquinolin-2(1H)-yl)-3-oxopropyl)urea] | 0.001 to 10
7 | CNS(=O)(=O)c1cccc(C(=O)N2CCc3c(cccc3Nc3ccc(C(F)(F)F)cc3)C2)c1 [Compound O-0200, N-methyl-3-(5-((4-(trifluoromethyl)phenyl)amino)-1,2,3,4-tetrahydroisoquinoline-2-carbonyl)benzenesulfonamide] | 0.001 to 10
8 | C=CC(=O)Nc1cncc(C(=O)N2CCc3c(cccc3Nc3ccc(C(F)(F)F)cc3)C2)c1 [Compound O-0037, N-(5-(5-((4-(trifluoromethyl)phenyl)amino)-1,2,3,4-tetrahydroisoquinoline-2-carbonyl)pyridin-3-yl)acrylamide] | 0.001 to 10
9 | O=C(NCCC(=O)N1CCc2c(cccc2Nc2ccc(C(F)(F)F)cn2)C1)NC1CC1 [Compound O-0187, 1-cyclopropyl-3-(3-oxo-3-(5-((5-(trifluoromethyl)pyridin-2-yl)amino)-3,4-dihydroisoquinolin-2(1H)-yl)propyl)urea] | 0.001 to 10
10 | O=C(c1ccnc(Cl)n1)N1CCc2c(cccc2Nc2ccc(C(F)(F)F)cc2)C1 [Compound O-0041, (2-chloropyrimidin-4-yl)(5-((4-(trifluoromethyl)phenyl)amino)-3,4-dihydroisoquinolin-2(1H)-yl)methanone] | 0.001 to 10
11 | CN(c1ccc(C(F)(F)F)cc1)c1cccc2c1CCN(C(=O)c1ccc(N)cc1)C2 [Compound O-0015, (4-aminophenyl)(5-(methyl(4-(trifluoromethyl)phenyl)amino)-3,4-dihydroisoquinolin-2(1H)-yl)methanone] | 0.001 to 10
12 | O=C(C1CCS(=O)(=O)CC1)N1CCc2cc(Nc3ccc(C(F)(F)F)cc3)ccc2C1 [Compound O-0208, (1,1-dioxidotetrahydro-2H-thiopyran-4-yl)(6-((4-(trifluoromethyl)phenyl)amino)-3,4-dihydroisoquinolin-2(1H)-yl)methanone] | 0.001 to 10
13 | C=CC(=O)Nc1ccnc(C(=O)N2CCc3c(cccc3Nc3ccc(C(F)(F)F)cc3)C2)c1 [Compound O-0036, N-(2-(5-((4-(trifluoromethyl)phenyl)amino)-1,2,3,4-tetrahydroisoquinoline-2-carbonyl)pyridin-4-yl)acrylamide] | 0.001 to 10
14 | O=C(NCc1ccccn1)N1CCc2c(cccc2Nc2ccc(C(F)(F)F)cc2)C1 [Compound O-0194, N-(pyridin-2-ylmethyl)-5-((4-(trifluoromethyl)phenyl)amino)-3,4-dihydroisoquinoline-2(1H)-carboxamide] | 0.001 to 10
15 | CN(c1ccc(C(F)(F)F)cc1)c1cccc2c1CCN(C(=O)c1cccc3[nH]ccc13)C2 [Compound O-0012, (1H-indol-4-yl)(5-(methyl(4-(trifluoromethyl)phenyl)amino)-3,4-dihydroisoquinolin-2(1H)-yl)methanone] | 0.001 to 10
16 | C=CC(=O)Nc1cccc(C(=O)N2CCc3c(cccc3N(C)c3ccc(C(F)(F)F)cc3)C2)c1 [Compound O-0017, N-(3-(5-(methyl(4-(trifluoromethyl)phenyl)amino)-1,2,3,4-tetrahydroisoquinoline-2-carbonyl)phenyl)acrylamide] | 0.001 to 10
17 | O=C(NC1CC1)N1CCC(C(=O)N2CCc3c(cccc3Nc3ccc(C(F)(F)F)nc3)C2)C1 (stereo not shown) [Compound O-0096, N-cyclopropyl-3-(5-((6-(trifluoromethyl)pyridin-3-yl)amino)-1,2,3,4-tetrahydroisoquinoline-2-carbonyl)pyrrolidine-1-carboxamide] | 0.001 to 10
18 | CS(=O)(=O)CCC(=O)N1CCc2c(cccc2Nc2ccc(C(F)(F)F)cc2)C1 [Compound O-0001, 3-(methylsulfonyl)-1-(5-((4-(trifluoromethyl)phenyl)amino)-3,4-dihydroisoquinolin-2(1H)-yl)propan-1-one] | 0.001 to 10
19 | O=C(CCS(=O)(=O)C(F)(F)F)N1CCc2c(cccc2Nc2ccc(C(F)(F)F)nc2)C1 [Compound O-0020, 1-(5-((6-(trifluoromethyl)pyridin-3-yl)amino)-3,4-dihydroisoquinolin-2(1H)-yl)-3-((trifluoromethyl)sulfonyl)propan-1-one] | 0.001 to 10
20 | O=C(c1cccc2[nH]c(C(F)(F)F)nc12)N1CCc2c(cccc2Nc2ccc(C(F)(F)F)cc2)C1 [Compound O-0058, (2-(trifluoromethyl)-1H-benzo[d]imidazol-4-yl)(5-((4-(trifluoromethyl)phenyl)amino)-3,4-dihydroisoquinolin-2(1H)-yl)methanone] | 0.001 to 10
21 | O=C1NC(=O)C(CC(=O)N2CCc3c(cccc3Nc3ccc(C(F)(F)F)c(F)c3)C2)N1 (stereo not shown) [Compound O-0197, 5-(2-(5-((3-fluoro-4-(trifluoromethyl)phenyl)amino)-3,4-dihydroisoquinolin-2(1H)-yl)-2-oxoethyl)imidazolidine-2,4-dione] | 0.001 to 10
22 | O=C(CCS(=O)(=O)C(F)(F)F)N1CCc2cc(Nc3ccc(C(F)(F)F)cc3)ccc2C1 [Compound O-0205, 1-(6-((4-(trifluoromethyl)phenyl)amino)-3,4-dihydroisoquinolin-2(1H)-yl)-3-((trifluoromethyl)sulfonyl)propan-1-one] | 0.001 to 10
23 | O=C(NCCC(=O)N1CCc2c(cccc2Nc2ccc(C(F)(F)F)nc2)C1)NC1CC1 [Compound O-0195, 1-cyclopropyl-3-(3-oxo-3-(5-((6-(trifluoromethyl)pyridin-3-yl)amino)-3,4-dihydroisoquinolin-2(1H)-yl)propyl)urea] | 0.001 to 10
24 | NC(=O)N1CCC(C(=O)N2CCc3c(cccc3Nc3ccc(C(F)(F)F)cc3)C2)C1 (stereo not shown) [Compound O-0057, 3-(5-((4-(trifluoromethyl)phenyl)amino)-1,2,3,4-tetrahydroisoquinoline-2-carbonyl)pyrrolidine-1-carboxamide] | 0.001 to 10
25 | O=C(NCCC(=O)N1CCc2c(cccc2Nc2ccc(C(F)(F)F)cn2)C1)Nc1ccccn1 [Compound O-0186, 1-(3-oxo-3-(5-((5-(trifluoromethyl)pyridin-2-yl)amino)-3,4-dihydroisoquinolin-2(1H)-yl)propyl)-3-(pyridin-2-yl)urea] | 0.001 to 10
26 | O=C(c1cccc2[nH]ccc12)N1CCc2c(cccc2Nc2ccc(C(F)(F)F)cc2)C1 [Compound O-0027, (1H-indol-4-yl)(5-((4-(trifluoromethyl)phenyl)amino)-3,4-dihydroisoquinolin-2(1H)-yl)methanone] | 0.001 to 10
27 | CS(=O)(=O)c1nccc(C(=O)N2CCc3c(cccc3Nc3ccc(C(F)(F)F)cc3)C2)n1 [Compound O-0040, (2-(methylsulfonyl)pyrimidin-4-yl)(5-((4-(trifluoromethyl)phenyl)amino)-3,4-dihydroisoquinolin-2(1H)-yl)methanone] | 0.001 to 10
28 | O=C1NC(=O)C(CC(=O)N2CCc3c(cccc3Nc3ccc(C(F)(F)F)cc3)C2)N1 (stereo not shown) [Compound O-0055, 5-(2-oxo-2-(5-((4-(trifluoromethyl)phenyl)amino)-3,4-dihydroisoquinolin-2(1H)-yl)ethyl)imidazolidine-2,4-dione] | 0.001 to 10
